Target: T1, D(4) dopamine receptor (Homo sapiens) (UniProt P21917)
T1 sequence (whole entry): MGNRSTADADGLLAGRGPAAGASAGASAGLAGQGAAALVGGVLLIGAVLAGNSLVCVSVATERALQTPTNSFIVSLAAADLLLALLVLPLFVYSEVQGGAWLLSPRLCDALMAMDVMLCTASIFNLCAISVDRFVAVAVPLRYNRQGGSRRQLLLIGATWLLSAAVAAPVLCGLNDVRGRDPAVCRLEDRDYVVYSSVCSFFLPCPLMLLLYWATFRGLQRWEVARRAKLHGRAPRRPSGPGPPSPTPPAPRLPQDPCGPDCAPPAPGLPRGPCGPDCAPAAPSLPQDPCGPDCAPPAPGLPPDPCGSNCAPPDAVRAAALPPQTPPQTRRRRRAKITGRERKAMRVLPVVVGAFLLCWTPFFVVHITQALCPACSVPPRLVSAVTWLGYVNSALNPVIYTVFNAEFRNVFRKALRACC
Conditions: CHO-K1
Description: Ability to displace [3H]spiperone from dopamine receptor D4.4 expressed in CHO-K1 cells

Compound | pKi
Clc1ccc(N2CCN(Cc3ccccc3)CC2)cc1 | 6.6
CCN1CCN(Cc2cnn3ccccc23)CC1 | 4.62
OCc1ccc2c(CN3CCN(c4ccccc4)CC3)cnn2c1 | 7.71
Clc1ccc(N2CCN(Cc3cc4ccccc4[nH]3)CC2)cc1 | 7.74
N#CC(C#N)=Cc1cc(CN2CCN(c3ccc(Cl)cc3)CC2)c[nH]1 | 8.24
Clc1ccc(N2CCN(Cc3ccc[nH]3)CC2)cc1 | 7.58
Cc1cccc2c(CN3CCN(c4ccc(Cl)cc4)CC3)cnn12 | 8.57
Fc1ccc(N2CCN(Cc3cnn4ccccc34)CC2)cc1 | 7.7
Clc1ccc(N2CCN(Cc3cnn4ccccc34)CC2)cc1Cl | 8.25
C#Cc1cccc2c(CN3CCN(c4ccc(Cl)cc4)CC3)cnn12 | 8.91
Cc1cccn2ncc(CN3CCN(c4ccc(Cl)cc4)CC3)c12 | 7.3
Ic1ccc(N2CCN(Cc3cnn4ccccc34)CC2)cc1 | 8.52
Clc1ccc(N2CCN(Cc3cnn4c(I)cccc34)CC2)cc1 | 8.3
FC(F)(F)c1cccc(N2CCN(Cc3cnn4ccccc34)CC2)c1 | 8.72
Clc1ccc(N2CCN(Cc3cc4ccccn4n3)CC2)cc1 | 8.66
Clc1ccc(N2CCN(Cc3cc[nH]c3)CC2)cc1 | 7.41
N#CC(C#N)=Cc1ccc(CN2CCN(c3ccc(Cl)cc3)CC2)[nH]1 | 8.02
Clc1cccc(N2CCN(Cc3cnn4ccc5ccccc5c34)CC2)c1 | 6.1
Clc1cccc(N2CCN(Cc3cnn4c3ccc3ccccc34)CC2)c1 | 6.66
C#Cc1ccc(N2CCN(Cc3cnn4ccccc34)CC2)cc1 | 8.36

From ChEMBL document CHEMBL1134390, “Comparative molecular field analysis of dopamine D4 receptor antagonists including 3-[4-(4-chlorophenyl)piperazin-1-ylmethyl]pyrazolo[1,5-a]pyridine (FAUC 113), 3-[4-(4-chlorophenyl)piperazin-1-ylmethyl]-1H-pyrrolo-[2,3-b]pyridine (L-745,870), and clozapine” (J Med Chem, 2001)
